Values after ≈ are worked out from the molar mass of the structure shown. Where two headings read alike, the source gives them in different places.

Data set [1] has as its system Candida albicans CBS 562. Type of data set: cell-based.
Data set [2] deals with Candida albicans 607. The class given is cell-based.
In data set [3] the test system is Candida albicans 615. The class given is cell-based.
The test system of data set [4] is Aspergillus fumigatus 64026. The class given is cell-based.
For data set [5], the system named is Candida glabrata 4681. The class given is cell-based. The settings on record: Table 1, footnote c.
Data set [6] relates to Candida glabrata 4787. The class given is cell-based.
Data set [7] concerns male ICR mice. The settings on record: mice that received the MTD.
Data set [8] is described as follows: in vivo. The conditions noted are these: male, ICR, mouse, iv.
The test system of data set [9] is Candida glabrata 4210. Type of data set: cell-based. The settings on record: Table 1, footnote c.
For data set [10], the system named is Candida glabrata 4475 (resistant to azoles). Type of data set: cell-based. The settings on record: Table 1, footnote c.

As a reminder, the MIC is the lowest concentration found to suppress growth. Consider `OC(Cn1cncn1)(Cn1cncn1)c1ccc(F)cc1F` [CAF2, Fluconazole, reference compound], for which the MIC in data set [1] (CBS562, Table 1, read-out: MIC) was 1.6 µM (≈ 0.49 µg/mL); in data set [2] (Table 1, read-out: MIC), 1.6 µM (≈ 0.49 µg/mL); in data set [3] (Table 1, read-out: MIC) it was 1.6 µM (≈ 0.49 µg/mL); in [4] (Table 1, read-out: MIC) it was over 208 µM.
Take `CCCCCN(C)C` [K-H, pentyl-dimethyl-amine cyanoborane]: the MIC in data set [1] (CBS562, Table 1, read-out: MIC) is 810 µM (≈ 93.3 µg/mL); in [2] (Table 1, read-out: MIC), 3240 µM (≈ 373 µg/mL); in data set [3] (Table 1, read-out: MIC), 3240 µM (≈ 373 µg/mL); in [4] (Table 1, read-out: MIC), 3240 µM (≈ 373 µg/mL).
On to `CCCCCCCCCCCN(C)C` [K-I4, dimethyl-undecyl-amine cyanofluoroborane], for which the MIC was 64 µM (≈ 12.8 µg/mL) in data set [1] (Table 1), 64 µM (≈ 12.8 µg/mL) in data set [2] (Table 1), 64 µM (≈ 12.8 µg/mL) in data set [3] (Table 1) and 129 µM (≈ 25.7 µg/mL) in [4] (Table 1).
With `CCCCCCCCCCCN(C)C` [K-I2, dimethyl-undecyl-amine cyanodibromoborane], the MIC in data set [1] (Table 1) is 39 µM (≈ 7.78 µg/mL); in [2] (Table 1), 39 µM (≈ 7.78 µg/mL); in data set [3] (Table 1) it was 39 µM (≈ 7.78 µg/mL); in data set [5] it was 32^c μg per liter; in [6] (Table 1), 32 µM (≈ 6.38 µg/mL); in data set [4] (Table 1), 79 µM (≈ 15.8 µg/mL). Besides, the “clinical signs, body weights and gross necropsy (day 8)” value in [7] was “No changes”. For the same compound, the MTD in data set [8] is 73.1 µmol/kg.
Take `C[N+](C)(C)[B-](Br)(Br)C#N` [K-E, trimethyl-amine cyanodibromoborane]: the MIC was 1970 µM (≈ 504 µg/mL) in data set [1] (Table 1); over 1970 µM in data set [2] (Table 1); over 1970 µM in data set [3] (Table 1); 500^c μg per liter in [9]; >500^c μg per liter in data set [10].
Take `C[C@@H]1[C@H](O)[C@@H](C)/C=C/C=C/C=C/C=C/C=C/C=C/C=C/[C@H](O[C@@H]2O[C@H](C)[C@@H](O)[C@H](N)[C@@H]2O)C[C@@H]2O[C@](O)(C[C@@H](O)C[C@@H](O)[C@H](O)CC[C@@H](O)C[C@@H](O)CC(=O)O[C@H]1C)C[C@H](O)[C@H]2C(=O)O` [CAF1, Amphotericin B, reference compound]: the minimal inhibitory concentration (MIC) was 0.54 µM (≈ 0.499 µg/mL) in data set [1] (Table 1), 0.27 µM (≈ 0.25 µg/mL) in data set [2] (Table 1), 0.27 µM (≈ 0.25 µg/mL) in data set [3] (Table 1) and 0.5 µM (≈ 0.462 µg/mL) in data set [4] (Table 1).
In the case of `C[N+](C)(CCCCCCCCCC[N+](C)(C)[B-](Br)(Br)C#N)[B-](Br)(Br)C#N` [K-J2, N,N,N′,N′-tetramethyl-decane-1,10-diamine bis-cyanodibromoborane], the MIC in data set [1] (Table 1) was 104 µM (≈ 64.7 µg/mL); in [2] (Table 1), 104 µM (≈ 64.7 µg/mL); in data set [3] (Table 1), 104 µM (≈ 64.7 µg/mL); in data set [9] it was 65^c μg per liter; in data set [10] it was 65^c μg per liter; in data set [5], 65^c μg per liter. The compound also returned an MIC in data set [6] (Table 1) of 65 µM (≈ 40.4 µg/mL).
On to `CN(C)CCCCCCCCCCCCN(C)C` [K-M, N,N,N′,N′-tetramethyl-dodecane-1,12-diamine bis-cyanoborane], for which the MIC in data set [1] (CBS562, Table 1, read-out: MIC) is 96 µM (≈ 24.6 µg/mL); in [2] (Table 1, read-out: MIC), 194 µM (≈ 49.8 µg/mL); in data set [3] (Table 1, read-out: MIC), 46 µM (≈ 11.8 µg/mL); in data set [5], 125^c μg per liter; in data set [6] (Nakaseomyces glabratus, Table 1, read-out: MIC), 250 µM (≈ 64.1 µg/mL).
On to `CCCCCCCCCCCN(C)C` [K-I1, dimethyl-undecyl-amine cyanobromoborane], for which the MIC in data set [1] (Candida albicans, CBS562, Table 1 column A, read-out: MIC) is 49 µM (≈ 9.77 µg/mL); in data set [2] (Candida albicans, 607, Table 1 column B, read-out: MIC) it was 49 µM (≈ 9.77 µg/mL); in data set [3] (Candida albicans, 615, Table 1 column C, read-out: MIC) it was 49 µM (≈ 9.77 µg/mL); in [4] (Aspergillus fumigatus, 64026, Table 1 column I, read-out: MIC), 131 µM (≈ 26.1 µg/mL).
Consider `CCCCCCCCCCCN(C)C` [K-I3, dimethyl-undecyl-amine cyanofluorobromoborane], for which the MIC in [1] (Candida albicans, CBS562, 24 h, Table 1, read-out: MIC) stood at 7.8 µM (≈ 1.56 µg/mL).
`C=CCCCCN(C)C` [K-V, hex-5-enyl-dimethyl-amine cyanoborane]: the MIC worked out at 94 µM (≈ 12 µg/mL) in data set [1] (CBS562, Table 1, read-out: MIC); 94 µM (≈ 12 µg/mL) in [2] (Table 1, read-out: MIC); 94 µM (≈ 12 µg/mL) in data set [3] (Table 1, read-out: MIC); 94 µM (≈ 12 µg/mL) in data set [4] (Table 1, read-out: MIC).
For `CN(C)CCCCCCCCCCCCCCN(C)C` [K-N, N,N,N′,N′-tetramethyl-tetradecane-1,14-diamine bis-cyanoborane], the MIC in data set [1] (CBS562, Table 1, read-out: MIC) was 43 µM (≈ 12.2 µg/mL); in data set [2] (Table 1, read-out: MIC) it was 43 µM (≈ 12.2 µg/mL); in [3] (Table 1, read-out: MIC), 43 µM (≈ 12.2 µg/mL); in data set [4] (Table 1, read-out: MIC), 86 µM (≈ 24.5 µg/mL).
“N,N,N′,N′-tetramethyl- decane-1,10-diamine bis- carboxyborane [K-J3]”: the MIC is 188 µM in data set [1] (Table 1); 188 µM in data set [2] (Table 1); 907 µM in data set [3] (Table 1); 65^c μg per liter in data set [9]; 31.2^c μg per liter in data set [10]; 65^c μg per liter in data set [5]. The MIC in data set [6] (Table 1) was determined as 65 µM.
Take `CCCCN(C)C` [K-G, butyl-dimethyl-amine cyanoborane]: the MIC in data set [1] (CBS562, Table 1, read-out: MIC) is 3570 µM (≈ 361 µg/mL); in data set [2] (Table 1, read-out: MIC), over 3570 µM; in data set [3] (Table 1, read-out: MIC), over 3570 µM; in data set [4] (Table 1, read-out: MIC) it was over 3570 µM.
For the compound `CCCCCCC(C)(O)CN(C)C` (centres unmarked) [K-O, 1-dimethylamino-2-methyl-octan-2-ol cyanoborane], the MIC turned out to be 2210 µM (≈ 414 µg/mL) in [1] (CBS562, Table 1, read-out: MIC); 1100 µM (≈ 206 µg/mL) in data set [2] (Table 1, read-out: MIC); 1100 µM (≈ 206 µg/mL) in data set [3] (Table 1, read-out: MIC).
For the compound “N,N,N′,N′-tetramethyl- decane-1,10-diamine bis- cyanobromoborane [K-J1]”, the MIC in data set [1] (Table 1) is 140 µM; in [2] (Table 1), 140 µM; in data set [3] (Table 1) it was 140 µM; in data set [9], 65^c μg per liter; in [10], 65^c μg per liter; in data set [5] it was 65^c μg per liter. In data set [6] (Table 1), this compound displayed an MIC of 65 µM.
Turning to `C=CCCN(C)C` [K-D, but-3-enyl-dimethyl-amine cyanoborane], the MIC in [1] (CBS562, Table 1, read-out: MIC) is 470 µM (≈ 46.6 µg/mL); in data set [2] (Table 1, read-out: MIC) it was 3620 µM (≈ 359 µg/mL); in [3] (Table 1, read-out: MIC), over 3620 µM; in data set [4] (Table 1, read-out: MIC), over 3620 µM.
With `CCCCCCCCCC(O)CN(C)C` (centres unmarked) [K-U, 1-dimethylamino-undecan-2-ol cyanoborane], the MIC amounted to 492 µM (≈ 106 µg/mL) in data set [1] (CBS562, Table 1, read-out: MIC); 492 µM (≈ 106 µg/mL) in data set [2] (Table 1, read-out: MIC); 983 µM (≈ 212 µg/mL) in data set [3] (Table 1, read-out: MIC); 492 µM (≈ 106 µg/mL) in [4] (Table 1, read-out: MIC).

Values taken from US20090131366A1, “Use of Amine-Borane Compounds as Anti-Microbial Agents” (priority 2005, published 2009).
